Experiment: Human cadaver skin permeation study in modified Franz diffusion cells
Details: for 72 hr Cumulative Permeation: drug-in-adhesive formulation, human cadaver stratum corneum, Franz cells, 32° C.; for transdermal delivery rate compared with ketoprofen: previous work by the inventor on non-polar ketoprofen derivatives; for delivery rate (average flux through cadaver skin), FIG. 2: ketoprofen, polar and non-polar derivatives

Row | Compound | 72 hr Cumulative Permeation | transdermal delivery rate compared with ketoprofen | delivery rate (average flux through cadaver skin), FIG. 2 (cadaver skin in Franz cells) | skin permeation over 72 hours (over 72 hours) | delivery rate (average flux through cadaver skin), FIG. 1 (non-polar ketoprofen derivatives, approximate 84 hour time period, cadaver skin in Franz cells)
1 | CCOC(=O)C(C)c1cccc(C(=O)c2ccccc2)c1 (stereo not shown) [Ketoprofen Ethyl Ester] | 170 µg/cm² | lower delivery rates than ketoprofen |  |  | 
2 | CC(C)OC(=O)C(C)c1cccc(C(=O)c2ccccc2)c1 (stereo not shown) [Ketoprofen Isopropyl Ester] | 61.2 µg/cm² | lower delivery rates than ketoprofen |  |  | 
3 | CC(C(=O)OCC(O)CO)c1cccc(C(=O)c2ccccc2)c1 (stereo not shown) [Ketoprofen Monoglycerol Ester] | 214 µg/cm² |  | faster delivery rate than each of the non-polar ester derivatives tested |  | 
4 | CC(C(=O)O)c1cccc(C(=O)c2ccccc2)c1 (stereo not shown) [Ketoprofen, 2-(3-benzoyl-phenyl)-propionic acid] |  |  | highest delivery rate | about 1110 μg/cm^2 | 
5 | COC(=O)C(C)c1cccc(C(=O)c2ccccc2)c1 (stereo not shown) [methyl ester of ketoprofen] |  | lower delivery rates than ketoprofen |  |  | faster delivery rate than each of the ethyl ester and isopropyl ester
